Source: patent EP0166357A2, “Benzofused lactams and pharmaceutical compositions containing them” (Merck & Co., Inc., priority 1984, dated 1986)

The molecules below were run against CCK receptor (assay: 125I-CCK-33 receptor binding assay). Conditions: tissue not stated for the values (methods given for rat pancreas and guinea pig brain cortex membranes); read-out: IC50, inhibition of specific 125I-CCK-33 binding.
Experimental: CCK-33 was radiolabeled with […] (2000 Ci/mmole) as described by Sankara et al. [J. Biol. Chem. 254: 9349-9351, (1979)]. Receptor binding was performed according to Innis and Snyder [Proc. Natl. Acad. Sci. 77: 6917-6921, (1980)] with the minor modification of adding the additional protease inhibitors, phenylmethane sulfonyl fluoride and o-phenanthroline. The latter two compounds have no effect on the ^125I-CCK receptor binding assay.
Male Sprague-Dawley rats (200-350g) were sacrificed by decapitation. The whole pancreas was dissected free of fat tissue and was homogenized in 20 volumes of ice-cold 50 mM, Tris HC1 (pH 7.7 at 25°C) with a Brinkman Polytron PT 10. The homogenates were centrifuged at 48,000 g for 10 min. Pellets were resuspended in Tris Buffer, centrifuged as above and resuspended in 200 volumes of binding assay buffer (50 mM Tris HC1, pH 7.7 at 25°C, 5 mM dithiothriethel, 0.1 mM bacitracin, 1.2 mM phenylmethane sulfonyl fluoride and 0.5 mM o-phenanthroline). For the binding assay, 25 µl of buffer (for total binding) or unlabeled CCK-8 sulfate to give a final concentration of luM (for nonspecific binding) or the compounds of Formula 1 (for determination inhibition of 125I-CCR binding) and 25 µl of 125I-CCK-33 (30,000-40,000 cpm) were added to 450 µl of the membrane suspensions in microfuge tubes. All assays were run in duplicate or triplicate. The reaction mixtures were incubated at 37°C for 30 minutes and centrifuged in a Beckman Microfuge (4 minutes) immediately after adding 1 ml of ice-cold incubation buffer. The supernatant was aspirated and discarded, pellets were counted with a Beckman gamma 5000.
CCK-33 was radiolabeled with and the binding was performed according to the description for the pancreas method with modifications according to Saito, et al. (J. Neurochem, 37, 483-490 (1981)).
Hall Hartley guinea pigs (300-500 g) were sacrificed by decapitation and the brains were removed and placed in ice-cold 50 mM, Tris HC1 plus 7.58 g/1 Tritma-7.4 (pH 7.4 at 25°C) Cerebral cortex was dissected and used as a receptor source. Each gram of fresh guinea pig brain tissue was homogenized in 10 ml of Tris/Trizma buffer with a Brinkman polytron PT-10. The homogenates were centrifuged at 42,000 g for 15 minutes. Pellets were resuspended in Tris Buffer, centrifuged as above and resuspended in 200 volumes of binding assay buffer (10 mM HEPES, pH 7.7 at 25°C, 5 mM Mg C12, […], 0.4% BSA (bovine serum albumin) and 0.25 mg/ml bacitracin). For the binding assay, 25 µl of buffer (for total binding) or unlabeled CCK-8 sulfate to give a final concentration of 1µM (for nonspecific binding) or the compounds of Formula 1 (for determination inhibition of ^125I-CCK binding) and 25 µl of ^125I-CCK-33 (30,00-40,000 cpm) were added to 450 µl of the membrane suspensions in microfuge tubes. All assays were run in duplicate or triplicate. The reaction mixtures were incubated at 25°C for 2 hours and centrifuged in a Beckman Microfuge (4 minutes) immedidately after adding 1 ml of ice-cold incubation buffer. The supernatant was aspirated and discarded, pellets were counted with a Beckman gamma 5000.
`COC(=O)CN1C(=O)C(NCc2c[nH]c3ccccc23)CCc2ccccc21` (racemic) [l-Carbomethoxymethyl-3-(3-indolemethyl)amino homodihydrocarboxtyril] showed an IC50 of 15000 nM. With `CCOC(=O)C(CCc1ccccc1)NC1CCc2ccccc2N(C)C1=O` (single isomer, unassigned) [1-Methyl-3-(1-Carboethoxy-3-phenyl-1-propyl) aminohomodihydrocarbostyril] the IC50 was 60000 nM. `CC(=O)N[C@H](Cc1c[nH]c2ccccc12)C(=O)NC1CCc2ccccc2N(CC(=O)OC(C)(C)C)C1=O` (single isomer, unassigned) [1-t-Butoxycarbonylmethyl-3-(D-N-acetyltryptophanyl)-aminohomodihydrocarbostyril] gave an IC50 of 1600 nM. Molecule `CC(C)(C)OC(=O)CN1C(=O)C(NC(=O)[C@H](Cc2c[nH]c3ccccc23)NC(=O)OCc2ccccc2)CCc2ccccc21` (single isomer, unassigned) [l-t-Butoxycarbonylmethyl-3(-L-N-carbobenzyloxytrypto- phanyl)aminohomodihydrocarbostyril] has an IC50 of 1200 nM. In the case of `CC(=O)N[C@@H](Cc1c[nH]c2ccccc12)C(=O)NC1CCc2ccccc2N(CC(=O)OC(C)(C)C)C1=O` (single isomer, unassigned) [l-t-Butoxycarbonylmethyl-3-(L-N-acetyltryptophanyl)-aminohomodihydrocarbostyril], the IC50 is reported as 2800 nM.
